Source: patent publication US10975069B2, “Sigma-2 receptor ligand drug conjugates as antitumor compounds, methods of synthesis and uses thereof” (priority 2014, dated 2021)

Columns and labels:
[1] = biological target: T1, cystine/glutamate antiporter (system Xc′) (Homo sapiens, UniProt Q9UPY5); experiment: Cystine uptake assay in AsPC-1 cells; type: cell-based; conditions: FIG. 11A; for reduction in cystine uptake: same concentration of each compound (200 μM), DMSO control
T1 construct: endogenous in cells; host or cells: AsPC-1
T1 sequence (Q9UPY5 1-501): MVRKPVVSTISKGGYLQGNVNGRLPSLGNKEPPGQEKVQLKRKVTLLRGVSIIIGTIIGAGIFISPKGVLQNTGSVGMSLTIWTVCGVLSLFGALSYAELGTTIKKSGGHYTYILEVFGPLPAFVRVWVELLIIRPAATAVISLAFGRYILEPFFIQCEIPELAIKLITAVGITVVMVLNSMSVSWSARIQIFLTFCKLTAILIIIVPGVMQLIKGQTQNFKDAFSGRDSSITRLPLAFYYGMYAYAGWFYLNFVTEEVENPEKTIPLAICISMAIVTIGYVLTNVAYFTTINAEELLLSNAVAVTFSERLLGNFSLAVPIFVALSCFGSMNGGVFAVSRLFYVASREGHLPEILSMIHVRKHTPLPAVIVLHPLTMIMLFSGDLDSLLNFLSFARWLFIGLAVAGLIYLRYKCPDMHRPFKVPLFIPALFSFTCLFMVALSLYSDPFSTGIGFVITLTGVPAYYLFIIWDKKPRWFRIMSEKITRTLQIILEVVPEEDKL
T1 sequence (P08195 1-529 partner): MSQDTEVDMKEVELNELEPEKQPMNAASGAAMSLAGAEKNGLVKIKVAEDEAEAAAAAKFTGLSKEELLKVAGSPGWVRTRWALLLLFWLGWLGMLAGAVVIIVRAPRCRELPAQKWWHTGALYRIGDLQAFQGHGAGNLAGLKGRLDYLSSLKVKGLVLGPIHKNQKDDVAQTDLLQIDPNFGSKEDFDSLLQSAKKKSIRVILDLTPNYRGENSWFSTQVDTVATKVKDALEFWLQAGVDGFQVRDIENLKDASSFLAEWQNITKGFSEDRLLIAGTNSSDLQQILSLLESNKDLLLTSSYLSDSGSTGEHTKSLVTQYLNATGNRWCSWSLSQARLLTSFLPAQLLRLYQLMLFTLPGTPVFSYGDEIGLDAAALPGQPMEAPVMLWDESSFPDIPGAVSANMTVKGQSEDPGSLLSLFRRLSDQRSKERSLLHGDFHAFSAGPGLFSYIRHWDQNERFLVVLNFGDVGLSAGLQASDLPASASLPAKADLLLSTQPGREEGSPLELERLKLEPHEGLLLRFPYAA
Protocol: In these experiments, cystine uptake assay was performed as previously described (Dixon, S. J. et al. Cell 2012; 149: 1060-1072). Briefly, […] AsPC-1 cells/well were seeded overnight in 6 well plate. The next day, cells were washed twice in pre-warmed Na^+-free uptake buffer (137 mM choline chloride, 3 mM KCl, 1 mM CaCl2, 1 mM MgCl2, 5 mM D-glucose, 0.7 mM K2HPO4, and 10 mM HEPES [pH 7.4]). Subsequently, cells were incubated for 10 minutes at 37° C. in 1 ml of the uptake buffer to deplete cellular amino acids. The buffer was then replaced with 600 μl uptake buffer containing 200 μM of SW V-49s and 0.12 μCi (80-110 mCi/mmol) of L-[3,3′-^14C]-cystine (American Radiolabeled Chemicals. St Louis. Mo.) and incubated for 3 minutes at 37° C. After that, cells were washed three times with ice-cold uptake buffer and lysed in 500 μl of 0.1 M NaOH. To this lysate, 1 ml of scintillation fluid was added, and radioactive counts per minute were obtained by using a scintillation counter.
To evaluate this mechanism. AsPC-1 cells were plated in 6 well plate for 24 hours. Cells were then treated with the same concentration of SV119, Erastin, combination of SV119 and Erastin. SW V-49s, and DMSO as a control. After that, a cystine uptake assay was performed. […] Erastin, and combination of SV 119 and Erastin, respectively (p=0.004, FIG. 11A).

caspase 9 = experiment: CASPASE-GLO caspase 9 assay in AsPC-1 cells; type: cell-based, human; conditions: 4 μM, 24 hours, DMSO baseline, FIG. 12B
Protocol: (§1) In these experiments, caspase-3/7.8 and 9 activities were measured In AsPC-1 cells using the corresponding CASPASE-GLO® Assay according to the manufacturer's instructions (Promega, Madison. Wis.). This assay is based on a caspase-specific substrate, which is cleaved to release aminoluciferin, a substrate of luciferase that results in caspase-specific luminescence signals. Cells were seeded at a density of 2×10^4 in white 96-well, clear bottom plates for 24 hours before treatment with 4 μM of compounds. The contents were then mixed using a plate shaker for 30 seconds, thereafter incubated at room temperature for 90 minutes. Luminescence signal was measured using a multi-mode microplate reader (BioTek). Assay was performed in triplicates, and the caspase activity of DMSO was considered as a base line.
(§2) The present inventors have shown that SV119 induces caspase-3 dependent apoptosis (Kashiwagi, H., el al. Mol Cancer 2007; 6:48). In these experiments, AsPC-1 cells were treated with 4 μM of SW V-49s. SV119, Erastin, and equimolar mixture of SV119 and Erastin for 24 hours. Using CASPASE-GLO® Assays, Caspase-3 level was measured to assess the activity of SW 119 domain of the SW V-49s compound and Caspase-8 and 9 levels were measured to identify which apoptotic pathway was involved.

caspase 8 = experiment: CASPASE-GLO caspase 8 assay in AsPC-1 cells; type: cell-based, human; conditions: 4 μM, 24 hours, FIG. 12C
Protocol: as §1, §2

[2] = test system: PDAC patient-derived xenograft; experiment: PDAC patient-derived mouse xenograft model; type: in vivo; conditions: daily i.p. 375 nmoles for 2 weeks
Protocol: SW V-49s was also tested on a PDAC patient-derived mouse xenograft model, which is more clinically relevant. Surgical PDAC specimens (2×2 mm pieces) were obtained and implanted subcutaneously into the flanks of anesthetized NOD SCID mice. Then, tumors were harvested and implanted in the right flank of Athymic female nude mice (6 weeks old. National Cancer Institute Laboratories). These mice were treated with daily i.p. injections of […] and vehicle for 14 days. Mice were randomized into 2 groups (n=15). Drug treatment was started when the mean tumors diameter was ^˜6 mm. Mice received daily intra peritoneal injections with 375 nmoles in 100 μL/mouse of SW V-49s and vehicle for 2 weeks. Tumors were measured every other day. Mice were euthanized when tumors reached a diameter of 2 cm or ulcerated.

SMILES | reduction in cystine uptake [1] [%] | fold less cysteine uptake [1] [fold] | caspase-9 fold above baseline (caspase 9) [fold] | increase in caspase 8 (caspase 8) | tolerability [2] | growth rate of established tumors ([2]; FIG. 14C) | median survival ([2]; vehicle 33 days, FIG. 14D) [days]
CCOc1ccccc1-n1c(C(C)N2CCN(C(=O)COc3ccc(Cl)cc3)CC2)nc2ccccc2c1=O (stereo not drawn) [Erastin] | 41 |  |  |  |  |  | 
COc1ccc(C)cc1NC(=O)OC1C[C@H]2CCC[C@@H](C1)N2CCCCCCN (stereo partly drawn) [SV119, reference compound] | 25 |  |  |  |  |  | 
CCOc1ccccc1-n1c(CN2CCN(C(=O)COc3ccc(CNCCCCCCN4C5CCCC4CC(OC(=O)Nc4cc(C)ccc4OC)C5)cc3)CC2)nc2ccccc2c1=O.O=C(O)C(=O)O (stereo not drawn) [SW V-49s] | 85 | 3.7 | 3.2 | no significant increase | tolerated the treatment well without obvious off-target effects | markedly slowed the growth rate of the established tumors | 58
